In the supplement of paper PMC10307832:

Key:
Assay in all cases: relative viability (nuclei count vs DMSO), 5 days (fraction); higher = more cells survive
[1] = compound: COc1cc2nc(N3CCCN(C)CC3)nc(NC3CCN(Cc4ccccc4)CC3)c2cc1OC + C[C@]1(O)C[C@@H](c2nc(-c3ccc4ccc(-c5ccccc5)nc4c3)c3c(N)nccn32)C1 [Linsitinib] (partner 1 µM)
In short: (§1)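 Cells from lung cancer lines were seeded into 1536-well plates and, one day later, dosed by pin tool. Treatments were either a single drug or a fixed dose of an anchor drug with five library-drug doses (not always all listed) in √10 steps. After 5 days, nuclei were stained in a one-step fixation (final 0.05% Triton X-100, 1% formaldehyde, 1 ug/ml Hoechst) and counted on 4× images, and relative viability is the treated-to-vehicle nuclei ratio, as the median of duplicate plates.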

[2] = compound: COc1cc2nc(N3CCCN(C)CC3)nc(NC3CCN(Cc4ccccc4)CC3)c2cc1OC + CC1(C)CCC(c2ccc(Cl)cc2)=C(CN2CCN(c3ccc(C(=O)NS(=O)(=O)c4ccc(N[C@H](CCN5CCOCC5)CSc5ccccc5)c(S(=O)(=O)C(F)(F)F)c4)cc3)CC2)C1 [Navitoclax] (partner 0.5 µM)
In short: as §1

[3] = compound: COc1cc2nc(N3CCCN(C)CC3)nc(NC3CCN(Cc4ccccc4)CC3)c2cc1OC + CC(C)C[C@H](NC(=O)[C@H](Cc1ccccc1)NC(=O)c1cnccn1)B(O)O [Bortezomib] (partner 0.002 µM)
In short: as §1

[4] = compound: Cc1cc([C@@H](C)Nc2ccccc2C(=O)O)c2nc(N3CCOCC3)cc(=O)n2c1 [AZD6482] + Cc1nc(NC(=O)N2CCC[C@H]2C(N)=O)sc1-c1ccnc(C(C)(C)C(F)(F)F)c1 [Alpelisib] (partner 2 µM)
In short: as §1

UMC-11 was tested, and the relative viability ([1]; first compound 0.2 µM) was 1.03, the relative viability ([1]; first compound 0.6325 µM) was 1.03 and the relative viability ([1]; first compound 2 µM) was 1.05. The relative viability ([1]; first compound 6.325 µM) was 1.04, the relative viability ([2]; first compound 0.2 µM) was 0.315 and the relative viability ([2]; first compound 0.6325 µM) was 0.333. For the same cell line, the relative viability ([2]; first compound 2 µM) was 0.317, the relative viability ([2]; first compound 6.325 µM) was 0.254 and the relative viability ([3]; first compound 0.2 µM) was 0.737. It also gave a relative viability ([3]; first compound 0.6325 µM) of 0.778, a relative viability ([3]; first compound 2 µM) of 0.71 and a relative viability ([3]; first compound 6.325 µM) of 0.594. It also gave a relative viability ([4]; first compound 0.08 µM) of 1.01, a relative viability ([4]; first compound 0.253 µM) of 0.938 and a relative viability ([4]; first compound 0.8 µM) of 0.984. For the same cell line, the relative viability ([4]; first compound 2.53 µM) was 0.693 and the relative viability ([4]; first compound 8 µM) was 0.965.
